Assay results reported in US8269000B2, “Substituted pyrimidine and triazine compounds” (Gruenenthal GmbH, priority 2008, dated 2012).

Each compound was assayed against T1, rat B1R (Rattus norvegicus, UniProt P97583) (assay: FLIPR Ca2+ functional study on bradykinin receptor 1 (rB1R CHO K1 cells)). Conditions: % inhibition rat B1R at 10 μM.
T1 construct: expressed in transfected cells; host or cells: CHO K1 cells
T1 sequence (P97583 1-337): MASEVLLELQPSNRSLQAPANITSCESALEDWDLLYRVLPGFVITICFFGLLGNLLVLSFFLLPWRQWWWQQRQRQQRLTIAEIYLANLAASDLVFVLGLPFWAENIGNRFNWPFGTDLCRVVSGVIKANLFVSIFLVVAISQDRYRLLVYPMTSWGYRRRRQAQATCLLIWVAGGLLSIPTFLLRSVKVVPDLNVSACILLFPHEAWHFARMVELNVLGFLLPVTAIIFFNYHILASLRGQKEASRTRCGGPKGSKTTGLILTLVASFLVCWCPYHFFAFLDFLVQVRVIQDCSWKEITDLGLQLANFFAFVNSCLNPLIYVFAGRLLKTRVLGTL
Type: cell-based
How it was run: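 CHO K1 cells stably expressing human or rat B1R were loaded with Fluo-4 and read on FLIPR (ex 488/em 540 nm, peak counts). Test compound (10 μM, or a concentration range for IC50) was added first for % activation versus control agonist; after 10-20 min, EC80 Lys-Des-Arg9-bradykinin (human) or Des-Arg9-bradykinin (rat) was added, giving % inhibition of maximum. n=2-3, N≥2.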

Compound	% inh. (rat B1R) 10 μM
4-[[1-[(4-methoxy-2,6-dimethyl-phenyl)sulfonyl]-piperidin-2-yl]-methoxy]-2-(4-pyrazin-2-yloxy-piperidin-1-yl)-pyrimidine [H_CC-080]	59%
COc1cc(C)c(S(=O)(=O)N2c3ccccc3C[C@H]2COc2ccnc(N3CCC(CCN4CCCC4)CC3)n2)c(C)c1 [H_CC-017, (2S)-1-(4-methoxy-2,6-dimethylphenyl)sulfonyl-2-[[2-[4-(2-1-pyrrolidinylethyl)-1-pipendinyl]-4-pyrimidinyl]oxymethyl]indoline]	93%
COc1cc(C)c(S(=O)(=O)N2CCC[C@H]2COc2ccnc(N3CCN(CC4CCN(C)CC4)CC3)n2)c(C)c1 [H_CC-012, 4-[[(2S)-1-(4-methoxy-2,6-dimethylphenyl)sulfonyl-2-pyrrolidinyl]methoxy]-2-[4-[(1-methyl-4-pipendinyl)methyl]-1-piperazinyl]pyrimidine]	93%

Same assay, conditions: CHO-K1, % inhibition rat B1R at 10 μM, read-out: % inh. (rat B1R) 10 μM

Compound	inhibition at 10 µM
COc1cc(C)c(S(=O)(=O)N2CCC[C@H]2COc2ccnc(N3CCC(O)(c4cccnc4)CC3)n2)c(C)c1 [H_CC-013, 1-[4-[[(2S)-1-(4-methoxy-2,6-dimethylphenyl)sulfonyl-2-pyrrolidinyl]methoxy]-2-pyrimidinyl]-4-(3-pyridyl)-4-piperidinol]	79%
COc1cc(C)c(S(=O)(=O)N(C)C(COc2nccc(N3CCC(O)(c4ccncc4)CC3)n2)c2ccccc2)c(C)c1 (centres unmarked) [G_CC-112, N-[2-[4-(4-hydroxy-4-pyridin-4-yl-piperidin-1-yl)-pyrimidin-2-yl]oxy-1-phenyl-ethyl]-4-methoxy-N,2,6-trimethyl-benzenesulfonic acid amide]	88%
COc1cc(C)c(S(=O)(=O)N2CCCCC2COc2nccc(N3CCC(c4cccc(F)c4)(N4CCN(C)CC4)CC3)n2)c(C)c1 (centres unmarked) [G_CC-104, 4-[4-(3-fluorophenyl)-4-(4-methyl-piperazin-1-yl)-piperidin-1-yl]-2-[[1-[(4-methoxy-2,6-dimethyl-phenyl)sulfonyl]-piperidin-2-yl]-methoxy]-pyrimidine]	101%
COc1cc(C)c(S(=O)(=O)N2CCCCC2COc2ccnc(N3CCC(O)(c4ccccn4)CC3)n2)c(C)c1 (centres unmarked) [H_CC-083, 1-[4-[[1-[(4-methoxy-2,6-dimethyl-phenyl)sulfonyl]-piperidin-2-yl]-methoxy]-pyrimidin-2-yl]-4-pyridin-2-yl-piperidin-4-ol]	59%
COc1cc(C)c(S(=O)(=O)N(C)CCOc2nccc(N(C)CCN3CCC(c4ccccc4)(N4CCCC4)CC3)n2)c(C)c1 [G_CC-119, 4-methoxy-N,2,6-trimethyl-N-[2-[4-[methyl-[2-(4-phenyl-4-pyrrolidin-1-yl-piperidin-1-yl)-ethyl]-amino]-pyrimidin-2-yl]oxy-ethyl]benzenesulfonic acid amide]	79%
COc1cc(C)c(S(=O)(=O)N(C)C(COc2nccc(N3CCC4(CCN(Cc5ccccc5)C4)C3)n2)c2ccccc2)c(C)c1 (centres unmarked) [G_CC-068, N-[2-[[4-(3-benzyl-3,7-diazaspiro[4.4]nonan-7-yl)-2-pyrimidinyl]oxy]-1-phenylethyl]-4-methoxy-N,2,6-trimethylbenzenesulfonamide]	68%
COc1cc(C)c(S(=O)(=O)N2CC(Oc3nccc(N4CCC(CCN5CCCCC5)CC4)n3)C2)c(C)c1 [G_CC-129, 2-[1-[(4-methoxy-2,6-dimethyl-phenyl)sulfonyl]-azetidin-3-yl]oxy-4-[4-(2-piperidin-1-yl-ethyl)-piperidin-1-yl]-pyrimidine]	73%
COc1cc(C)c(S(=O)(=O)N2CCC[C@H]2COc2nccc(N3CCN(C)CC3)n2)c(C)c1 [G_CC-015, 2-[[(2S)-1-(4-methoxy-2,6-dimethylphenyl)sulfonyl-2-pyrrolidinyl]methoxy]-4-(4-methyl-1-piperazinyl)pyrimidine]	83%
COc1cc(C)c(S(=O)(=O)N2c3ccccc3C[C@H]2COc2nccc(N(C)CCCN3CCC(c4ccccc4)(N(C)C)CC3)n2)c(C)c1 [G_CC-076, 3-(4-dimethylamino-4-phenyl-piperidin-1-yl)-propyl-[2-[[(2S)-1-[(4-methoxy-2,6-dimethyl-phenyl)sulfonyl]-2,3-dihydro-1H-indol-2-yl]-methoxy]-pyrimidin-4-yl]-methyl-amine]	105%
CCCCC1(N(C)C)CCN(CCN(C)c2nccc(OCCN(C)S(=O)(=O)c3c(C)cc(OC)cc3C)n2)CC1 [H_CC-060, N-[2-[2-[2-(4-butyl-4-dimethylamino-piperidin-1-yl)-ethyl-methyl-amino]pyrimidin-4-yl]oxy-ethyl]-4-methoxy-N,2,6-trimethyl-benzenesulfonic acid amide]	102%
COc1cc(C)c(S(=O)(=O)N2CCCCC2COc2ccnc(N3CCCC3Cc3ccccn3)n2)c(C)c1 (centres unmarked) [H_CC-078, 4-[[1-[(4-methoxy-2,6-dimethyl-phenyl)sulfonyl]-piperidin-2-yl]-methoxy]-2-[2-(pyridin-2-yl-methyl)-pyrrolidin-1-yl]-pyrimidine]	77%
COc1cc(C)c(S(=O)(=O)N(C)C(COc2ccnc(N3CCN(c4ccncc4)CC3)n2)c2ccccc2)c(C)c1 (centres unmarked) [H_CC-036, 4-methoxy-N,2,6-trimethyl-N-[1-phenyl-2-[[2-[4-(4-pyridyl)-1-piperazinyl]-4-pyrimidinyl]oxy]ethyl]benzenesulfonamide]	71%
CCCCC1(N(C)C)CCN(c2ccnc(OC[C@@H]3Cc4ccccc4N3S(=O)(=O)c3c(C)cc(OC)cc3C)n2)CC1 [G_CC-093, [4-butyl-1-[2-[[(2S)-1-[(4-methoxy-2,6-dimethyl-phenyl)sulfonyl]-2,3-dihydro-1H-indol-2-yl]-methoxy]-pyrimidin-4-yl]-piperidin-4-yl]-dimethyl-amine]	91%
COc1cc(C)c(S(=O)(=O)N(C)CCOc2ccnc(N(C)CCN3CCC(c4ccccc4)(N4CCCC4)CC3)n2)c(C)c1 [H_CC-059, 4-methoxy-N,2,6-trimethyl-N-[2-[2-[methyl-[2-(4-phenyl-4-pyrrolidin-1-yl-piperidin-1-yl)-ethyl]-amino]-pyrimidin-4-yl]oxy-ethyl]-benzenesulfonic acid amide]	91%
COc1cc(C)c(S(=O)(=O)N(C)CCOc2nccc(N3CCC(N4CCN(C)CC4)CC3)n2)c(C)c1 [G_CC-006, 4-methoxy-N,2,6-trimethyl-N-[2-[[4-[4-(4-methyl-1-piperazinyl)-1-piperidinyl]-2-pyrimidinyl]oxy]ethyl]benzenesulfonamide]	97%
COc1cc(C)c(S(=O)(=O)N2CCCCC2COc2nccc(N3CCC(c4ccccc4)(N4CCCC4)CC3)n2)c(C)c1 (centres unmarked) [G_CC-121, 2-[[1-[(4-methoxy-2,6-dimethyl-phenyl)sulfonyl]-piperidin-2-yl]-methoxy]-4-(4-phenyl-4-pyrrolidin-1-yl-piperidin-1-yl)-pyrimidine]	75%
COc1cc(C)c(S(=O)(=O)N2CCCCC2COc2ccnc(N(C)CCCN3CCC(c4ccccc4)(N(C)C)CC3)n2)c(C)c1 (centres unmarked) [H_CC-061, 3-(4-dimethylamino-4-phenyl-piperidin-1-yl)-propyl-[4-[[1-[(4-methoxy-2,6-dimethyl-phenyl)sulfonyl]-piperidin-2-yl]-methoxy]-pyrimidin-2-yl]-methyl-amine]	105%
COc1cc(C)c(S(=O)(=O)N2CC(Oc3nccc(N4CCN(CCCN(C)C)CC4)n3)C2)c(C)c1 [G_CC-127, 3-[4-[2-[1-[(4-methoxy-2,6-dimethyl-phenyl)sulfonyl]-azetidin-3-yl]oxy-pyrimidin-4-yl]-piperazin-1-yl]-propyl-dimethyl-amine]	54%
COc1cc(C)c(S(=O)(=O)N(C)C(COc2nccc(N(C)CCN3CCC(O)(c4cccnc4)CC3)n2)c2ccccc2)c(C)c1 (centres unmarked) [G_CC-138, N-[2-[4-[2-(4-hydroxy-4-pyridin-3-yl-piperidin-1-yl)-ethyl-methyl-amino]-pyrimidin-2-yl]oxy-1-phenyl-ethyl]-4-methoxy-N,2,6-trimethyl-benzenesulfonic acid amide]	56%
COc1cc(C)c(S(=O)(=O)N2CC(Oc3ccnc(N4CCC(CCN5CCCC5)CC4)n3)C2)c(C)c1 [H_CC-014, 4-[[1-(4-methoxy-2,6-dimethylphenyl)sulfonyl-3-azetidinyl]oxy]-2-[4-(2-1-pyrrolidinylethyl)-1-piperidinyl]pyrimidine]	53%
COc1cc(C)c(S(=O)(=O)N2CCCCC2COc2nccc(N3CCCC3Cc3ccccn3)n2)c(C)c1 (centres unmarked) [G_CC-081, 2-[[1-[(4-methoxy-2,6-dimethyl-phenyl)sulfonyl]-piperidin-2-yl]-methoxy]-4-[2-(pyridin-2-yl-methyl)-pyrrolidin-1-yl]-pyrimidine]	88%
COc1cc(C)c(S(=O)(=O)N2CC(Oc3nccc(N(C)CCCN4CCC(c5ccccc5)(N(C)C)CC4)n3)C2)c(C)c1 [G_CC-126, 3-(4-dimethylamino-4-phenyl-piperidin-1-yl)-propyl-[2-[1-[(4-methoxy-2,6-dimethyl-phenyl)sulfonyl]-azetidin-3-yl]oxy-pyrimidin-4-yl]-methyl-amine]	77%
COc1cc(C)c(S(=O)(=O)N2CCC[C@H]2COc2ccnc(N(C)CCN3CCC(Oc4ccncc4)CC3)n2)c(C)c1 [H_CC-051, [4-[[(2S)-1-[(4-methoxy-2,6-dimethyl-phenyl)sulfonyl]-pyrrolidin-2-yl]-methoxy]-pyrimidin-2-yl]-methyl-[2-(4-pyridin-4-yloxy-piperidin-1-yl)-ethyl]amine]	99%
